Tests used:
normotensive Wistar rats = experiment: 7 day radio-telemetry study in normotensive Wistar rats; conditions: hydralazine 10 mg/kg
Description: Male Crl:COBS(WI)BR rats of 15 weeks old were used.
Both nepicastat and hydralazine were prepared in water with traces of Tween 80. All doses were given orally to the rat in 10 ml/kg and were expressed as free base equivalents.
All values were expressed as means±SEM. Statistical significance was defined as a p level of less than 0.05.
Body weights were recorded daily.

Sprague Dawley rats = experiment: Locomotor activity and acoustic startle reactivity in rats, acute; type: in vivo; conditions: nepicastat 3-100 mg/kg, SKF-102698 100 mg/kg, clonidine 40 μg/kg
Excerpt: Rats were housed under a normal light/dark cycle with lights on between 0900 Hrs. and 2100 Hrs. Animals were housed in pairs in standard metal wire cages, and food and water were allowed ad libitum. The locomotor activity boxes consisted of a Plexiglas box measuring 18''×18'' by 12'' high. Surrounding the Plexiglas® boxes were Omnitech Digiscan Monitors (model # RXXCM 16) which consisted of a one inch ban of photobeams and photosensors numbering 32 per box. The number of photobeam breaks were analyzed by an Omnitech Digiscan Analyzer (model # DCM-8). […] A piezoelectric accelerometer transforms the subject's movement into an arbitrary voltage on a scale of 0 to 4095. […] The average startle was calculated for each rat by taking the mean of startle number 11 through 45 (the first ten startles will be disregarded). Sixty-four of these rats were then placed in one of eight treatment groups such that each group had similar mean startle values. The eight treatment groups were as follows: […] […] The rats motor activity was monitored for four hours. […] To evaluate motor activity, horizontal activity (number of photobeams broken), number of movements, and rest time were measured. Each parameter was analyzed separately. […] The startle responses were analyzed using analysis of covariance. […] Therefore, the startle responses were analyzed by time. […]

rats = experiment: Chronic (10 day) dosing behavioral tests in rats; conditions: rat, in vivo
Description: The effects of chronic dosing of nepicastat in rats were examined. Between three and thirteen days prior to the first dosing day the rats were placed inside the startle apparatus and after a five minute acclimation period they were presented with a 118 dB noise burst on average once a minute (a variable inter-trial interval ranging between 30 and 90 seconds will be used) for 20 minutes. The startle responses were measured and a mean for the last twenty startle response was calculated for each rat.
The following behavioral tests were administered during and after chronic dosing; body core temperature, motor activity, acoustic startle reactivity, and pre-pulse inhibition of acoustic startle.
The animals were tested in an enclosed room with a white noise generator running Motor activity tests were conducted immediately after the body core temperature reading taken on dosing day ten (about 3 hours and 35 minutes after the morning daily dose of nepicastat, and SKF-102698, and 20 minutes prior to the daily administration of clonidine and d-amphetamine on dosing day ten). Motor activity tests were run for one hour. A diagnostic program was run on each of the motor activity chambers prior to each test session to assure that the photo beams and light sensors were operating properly. […] D-amphetamine was used as the positive control for this assay.
Rat body core temperatures were obtained by inserting the rectal probe 2 cm into the colon of each rat. Each rat's body core temperature was measured three times and the average of the three reading was calculated. Body core temperature readings were obtained immediately prior to the ten day chronic dosing schedule (to obtain a baseline), and three and half hour after the morning daily dose of nepicastat, and SKF-102698, and 15 minutes prior to the daily administration of clonidine and d-amphetamine, on dosing days one, five and ten. […] Both clonidine (an alpha2 agonist), and d-amphetamine (a dopamine releaser) were used as the positive controls for this assay.
Acoustic startle reactivity (a series of muscle contractions elicited by an intense burst of noise with a rapid onset), and pre-pulse inhibition (sensorimotor gating measured by analyzing any decrease in startle reactivity which occurs when a startling stimulus is immediately preceded by a non startling stimulus) were both measured in eight SR-Lab (San Diego Instruments, San Diego, Calif.) test stations. The rats were placed individually in a Plexiglas cylinder (10 cm diameter) which was housed in a ventilated sound-attenuating enclosure. Acoustic noise bursts (a broad band noise with a rise time and fall time of 1 msec) were presented via a speaker mounted 30 cm above the animal. Also, these speakers produced a 68 dB level of background noise throughout all test sessions. A piezoelectric accelerometer attached below the plexiglass cylinder transduced the subject's movement into a voltage which was then rectified and digitized (on a scale from 0 to 4095) by a PC computer equipped with SR-Lab software and interface assembly. A decibel meter was used to calibrate the speakers in each of the eight test station to ±1% of the mean. Additionally, a SR-Lab calibrating instrument was used to calibrate each of the eight startle detection apparatuses to ±2% of the mean. Startle reactivity and pre-pulse inhibition tests were run concurrently immediately alter the motor activity test (about 4 hours and 40 minutes after the morning daily injection of nepicastat, and SKF-102698, and 10 minutes after a supplemental administration of clonidine and d-amphetamine on dosing day ten).

CD-1 (ICR) mice = experiment: Locomotor activity in mice, intraperitoneal; type: in vivo; conditions: i.p.; nepicastat 3-100, SKF-102698 30 and 100, cocaine 30 mg/kg
Excerpt: Adult male CD-1 (ICR) mice (30-40 g on study day) were housed in groups of eight under a normal light/dark cycle with lights on between 0900 hr and 2100 hr. Food and water were allowed ad libitum. All animals were naive to drug treatment and behavioral testing. Each animal was only used once.
Locomotor activity was monitored in an automated 14 station activity monitoring system (San Diego Instrument Co.). Each station consisted of a clear perspex cage (25 cm×45 cm×20 cm; w×1×h) placed within a metal frame containing 3 photoemmitors and 3 photodetectors spaced equally along the length of the wall. The bottom of each cage was lightly covered in clean cedar bedding.
The mice were placed in the testing room at least 1 hr prior to testing. The mice were placed individually into one of the activity cages and allowed to explore for 30 min. […] Following a 60 minute pre-treatment period, motor activity was monitored for 180 minutes. Activity counts and ambulations (defined as a break of 2 consecutive photobeams) for each animal were recorded every 30 minutes.
A repeated measures two-way analysis of variance (ANOVA) was performed using the overall ranked data (nonparametric technique) to test for the overall effects of treatment, time interval and treatment by time interval interaction. […]

[1] = in vivo; cited from earlier work
[2] = tested on: brain dopamine/norepinephrine ratio; experiment: Dopamine/norepinephrine ratios in the brain of rodents; conditions: in vivo
Description: Dopamine/norepinephrine ratios in the brain of rodents treated with nepicastat were determined. Dopamine/norepinephrine ratios increased in the brains of rodents treated with nepicastat or disulfuram.

[3] = cited from earlier work
[4] = tested on: spontaneous hypertensive rats; experiment: SCH-23390 pretreatment study in restrained SHRs; type: in vivo; conditions: SCH-23390 iv, post-iv period
Excerpt: Male, spontaneous hypertensive rats (280-345 g; Charles River Labs, Kingston, N.Y.) were fasted overnight then anesthetized with ether. A femoral artery and femoral vein were cannulated with PE50 tubing for recording of blood pressure and administration of compounds, respectively. Animals were then placed in MAYO restrainers and their feet loosely taped to the restrainer. Heparinized saline (50 units sodium heparin/ml) was used to maintain patency of each cannula throughout the experiment. The following parameters were continuously recorded using Modular Instruments MI^2 BioReport™ software installed on an IBM personal computer: mean arterial pressure (MAP), heart rate (HR), and the change from baseline for each parameter at specified time points in the experiment.
All compounds were dissolved on the day of use. Nepicastat was dissolved in deionized water (vehicle) to a free base concentration of 1 mg/ml. Oral dosing volume for nepicastat or vehicle was 10 ml/kg. SCH-23390 was dissolved in saline (vehicle) to a free base concentration of 0.2 mg/ml. […] or saline were administered intravenously as a bolus in a volume of 1.0 ml/kg followed by 0.2 ml flush of isotonic saline.
Following surgical preparation, each animal was allowed a minimum one hour recovery period. Animals were randomly assigned to four treatment groups: vehicle (iv)/vehicle (po); vehicle (iv)/nepicastat (po); SCH-23390 (iv)/vehicle (po); or SCH-23390 (iv)/nepicastat (po). Once animals were stabilized (minimum one hour), baseline blood pressure and heart rate was determined by taking an average of each parameter over a 15 min period of time. Once baseline blood pressure and heart rate were established, animals were dosed intravenously with either SCH-23390 (200 μg/kg) or vehicle (saline, 1 ml/kg). Fifteen minutes later, animals were orally dosed with either nepicastat (10 mg/kg) or vehicle (deionized water, 10 ml/kg).
Recorded parameters were measured 15 min prior to intravenous dosing to establish baseline blood pressure and heart rate. Recorded parameters were then measured at 5, 10, and 15 min following intravenous administration of SCH-23390 or vehicle. Following oral administration of nepicastat or vehicle, recorded parameters were measured at 15, 30, 60, 90, 120, 150, 180, 210, and 240 min.
At the end of the experiment, each animal was anesthetized with halothane and euthanized via decapitation. The cortex, left ventricle (apex), and mesenteric artery were dissected out, weighed, and fixed in 0.4 M perchloric acid. Tissues were then frozen in liquid nitrogen and stored at −70° C. Biochemical analysis are performed on these tissues at a later date to determine catecholamine levels including dopamine and norepinephrine levels. Blood pressure and heart rate were analyzed separately. The change from baseline for blood pressure and heart rate were analyzed by an analysis of variance (ANOVA) with effects for treatment, time, and their interaction. This analysis was performed both for the post-iv time period and for the post-oral time period. Further analyses were performed at each time by an ANOVA with a main effect for […]. Pairwise comparisons were performed following each ANOVA by Fisher's LSD strategy with a Bonferroni correction when the overall treatment effect was not significant.
An additional analysis was performed to compare the baseline means of each treatment group by an ANOVA with a main effect for treatment and subsequent pairwise comparisons. […]

## NNc1nncc2ccccc12 [hydralazine]
Normotensive Wistar rats
  heart rate: varying degrees of tachycardia
  time in which the hypotensive effect subsided: 10 h
Normotensive Wistar rats; within 1 hr after dosing on day 1
  maximal decrease in MBP: −24 mmHg

## Clc1cccc(Cl)c1N=C1NCCN1 [clonidine]
Sprague Dawley rats
  locomotor activity (horizontal activity, movements, rest time) vs vehicle: significantly more horizontal activities at 2 and 2.5 hours
  maximum and average acoustic startle response vs vehicle: statistically significantly lower maximum and average startle responses
rats
  body core temperature: significantly increasing body core temperature on day one
  pre-pulse inhibition: just significantly higher percent prepulse inhibition

## COC(=O)[C@H]1[C@@H](OC(=O)c2ccccc2)C[C@@H]2CC[C@H]1N2C.Cl [cocaine, cocaine hydrochloride]
CD-1 (ICR) mice
  total activity counts and ambulations vs vehicle: significantly greater total activity counts
[1]
  elimination half-life: about 90 min

## CCN(CC)C(=S)SSC(=S)N(CC)CC [disulfuram]
[2]
  dopamine/norepinephrine ratios in the brain: increased
[3]; disulfuram 250 mg per day
  cocaine use vs placebo: reduced cocaine use compared to placebo
[3]; intranasal cocaine during disulfuram treatment, one controlled study
  elevations in plasma cocaine levels: Six-fold elevations

## CN1CCc2cc(Cl)c(O)cc2[C@@H](c2ccccc2)C1 [SCH-23390, reference compound]
[4]
  decrease in mean arterial pressure: 5±1 mmHg
